Key:
[1] = system: threadworm (C. elegans); test: Neurotoxic substance administered to nematodes in liquid medium; behavior or morphology phenotype observed; assay type: in vivo, Caenorhabditis elegans; conditions: for behavioral anomalies or changes in morphology after administration of neurotoxic compound: nematodes (threadworms), general finding
Text: The response to the administration of neurotoxic substances which act on the central nervous system was investigated in nematodes of the genus Caenorhabditis and, in particular, in Caenorhabditis elegans. In this threadworm, a characteristic phenotype, which is expressed, for example, in movement disturbances, a reduced number of progeny or morphological changes,; is observed both in the larval stages L1, L2, L3 and L4 (see “The Nematode Caenorhabditis elegans”; Wood et al., Cold Spring Harbor Laboratory, 1988) and in the adult stage following incubation with a neurotoxic substance. This can be ascertained by observing the phenotype microscopically, by determining the number of progeny per animal and time period or by detecting nerve cells which have been labeled with particular dyes (e.g. GFP fusion proteins) and whose color changes after they have been acted upon by a neurotoxic substance.
(§1) Per assay, about 100 threadworm (C. elegans) test animals at a defined stage of development (e.g. L1 larval stage) were incubated in liquid medium at constant temperature (e.g. 20° C.). […]
This can be expressed in severe movement disturbances, a reduced number of progeny or morphological changes.

[2] = system: threadworm (C. elegans); test: Preincubation with test material before MPTP; reversion or prevention of the MPTP phenotype; assay type: in vivo, Caenorhabditis elegans; conditions: 100 C. elegans; three days of preincubation with L-DOPA, MPTP added on the third day; observed on day 6 (Figure B)
Text: It is possible to expose the nematodes to the materials to be investigated in a wide variety of ways. For example, it is possible to culture the animals in Petri dishes containing an agar which contains neurotoxic substances, on the one hand, and the substances of interest on the other. However, it is also possible to bathe the animals, in a simple manner, in the materials to be investigated. As well as being particularly simple, this variant also makes it possible to standardize the concentrations more easily and to achieve a higher throughput in a screening system. For an investigation, use is made of populations of the animals, which populations are then incubated with different solutions of the materials and at different concentrations. […] The observation, namely the reversion or prevention of the behavioral anomaly or the morphological change following neurotoxin treatment, makes it possible to draw a conclusion with regard to the possible activity and site of action of the material whose suitability as a drug is under investigation.
as §1

Row | Structure (SMILES) | characteristic phenotype (severe movement disturbances, reduced number of progeny or morphological changes) ([1]; about 100 C. elegans, e.g. L1 larval stage, liquid medium, e.g. 20° C., MPTP 16 to 500 μg/ml, observed e.g. on day 6 (Figure A)) | behavioral anomalies or changes in morphology after administration of neurotoxic compound [1] | expression of the phenotype brought about by MPTP after incubation with test material [2]
1 | CN1CC=C(c2ccccc2)CC1 [MPTP, 1-methyl-4-phenyl-1,2,3,6-tetrahydropyridine] | a characteristic phenotype was observed | exhibit behavioral anomalies or changes in their morphology | –
2 | NCCc1cc(O)c(O)cc1O [6-OHDA, 6-hydroxy-dopamine] | – | exhibit behavioral anomalies or changes in their morphology | –
3 | N[C@@H](Cc1ccc(O)c(O)c1)C(=O)O [L-DOPA, L-3,4-dihydroxyphenylalanine] | – | – | the phenotype which is brought about by MPTP is not expressed

— patent publication US20030108893A1, “Method for establishing neurogically relevant properties of a material” (priority 1999, published 2003)
